These results are taken from patent US20260193293A1, “PEPTIDES CAPABLE OF INHIBITING PROTEIN-PROTEIN INTERACTIONS AT GABAB1A SUBUNIT AND USES THEREOF” (UNIVERSITY OF COPENHAGEN, priority 2022, published 2026).

Structures are written as SMILES. Non-standard residues stand in square brackets, D forms with d. Residues, ends and D or L forms follow the SMILES beside them. NMeR = CN[C@@H](CCCNC(=N)N)C(=O)O; NMeT = CN[C@H](C(=O)O)[C@@H](C)O; NMeE = CN[C@@H](CCC(=O)O)C(=O)O; NMeD = CN[C@@H](CC(=O)O)C(=O)O; NMeV = CN[C@H](C(=O)O)C(C)C; NMeS = CN[C@@H](CO)C(=O)O

The first experiment deals with Sushi domains (SD1/2) protein. Nature of the experiment: Fluorescence polarization (FP) competition assay with AJAP-1probe, calculated Ki. It is filed as binding. The conditions noted are these: Table 6, elongation and truncation scan of PIANP binding epitope; read-out: Ki (nM) mean ± SEM. In a few lines: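 Ki values were derived from IC50s (sigmoidal fits, ≥ triplicate), with probe Kd obtained by saturation titration of SD1/2. Peptides displaced a 25 nM TAMRA-labelled probe; polarization read at 530/580 nm in 1% BSA-containing PBS, pH 7.4, room temperature.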
For `CC[C@H](C)[C@H](NC(=O)[C@H](C)NC(=O)[C@H](Cc1c[nH]c2ccccc12)NC(=O)[C@@H]1CCCN1C(C)=O)C(=O)N[C@H](C(=O)N[C@@H](Cc1c[nH]c2ccccc12)C(=O)NCC(=O)N1CCC[C@H]1C(=O)N[C@H](C(=O)N[C@H](C(=O)N[C@@H](CO)C(=O)N[C@@H](CCCNC(=N)N)C(=O)N[C@@H](CCC(=O)O)C(=O)N[C@@H](CC(=O)O)C(=O)NCC(=O)NCC(=O)N[C@@H](CC(=O)O)C(=O)N1CCC[C@H]1C(N)=O)C(C)C)[C@@H](C)O)C(C)C` (Ac-PWAIVWGPTVSREDGGDP-NH2), the inhibition constant (Ki) was 597 ± 7 nM. Still for that read-out and setting: under `CC[C@H](C)[C@H](NC(=O)[C@H](C)NC(=O)[C@H](Cc1c[nH]c2ccccc12)NC(=O)[C@@H]1CCCN1C(C)=O)C(=O)N[C@H](C(=O)N[C@@H](Cc1c[nH]c2ccccc12)C(=O)NCC(=O)N1CCC[C@H]1C(=O)N[C@H](C(=O)N[C@H](C(=O)N[C@@H](CO)C(=O)N[C@@H](CCCNC(=N)N)C(=O)N[C@@H](CCC(=O)O)C(=O)N[C@@H](CC(=O)O)C(=O)NCC(=O)NCC(=O)N[C@@H](CC(=O)O)C(=O)N1CCC[C@H]1C(=O)N[C@@H](CC(N)=O)C(N)=O)C(C)C)[C@@H](C)O)C(C)C` (Ac-PWAIVWGPTVSREDGGDPN-NH2) stands 579 ± 21 nM; under `CC[C@H](C)[C@H](NC(=O)[C@H](C)NC(=O)[C@H](Cc1c[nH]c2ccccc12)NC(=O)[C@@H]1CCCN1C(C)=O)C(=O)N[C@H](C(=O)N[C@@H](Cc1c[nH]c2ccccc12)C(=O)NCC(=O)N1CCC[C@H]1C(=O)N[C@H](C(=O)N[C@H](C(=O)N[C@@H](CO)C(=O)N[C@@H](CCCNC(=N)N)C(=O)N[C@@H](CCC(=O)O)C(=O)N[C@@H](CC(=O)O)C(=O)NCC(=O)NCC(=O)N[C@@H](CC(=O)O)C(=O)N1CCC[C@H]1C(=O)N[C@@H](CC(N)=O)C(=O)N[C@@H](CO)C(N)=O)C(C)C)[C@@H](C)O)C(C)C` (Ac-PWAIVWGPTVSREDGGDPNS-NH2), 706 ± 16 nM. With `CC[C@H](C)[C@H](NC(=O)[C@H](C)NC(=O)[C@H](Cc1c[nH]c2ccccc12)NC(=O)[C@@H]1CCCN1C(=O)[C@H](Cc1ccc(O)cc1)NC(=O)[C@H](CCC(N)=O)NC(C)=O)C(=O)N[C@H](C(=O)N[C@@H](Cc1c[nH]c2ccccc12)C(=O)NCC(=O)N1CCC[C@H]1C(=O)N[C@H](C(=O)N[C@H](C(=O)N[C@@H](CO)C(=O)N[C@@H](CCCNC(=N)N)C(=O)N[C@@H](CCC(=O)O)C(=O)N[C@@H](CC(=O)O)C(=O)NCC(N)=O)C(C)C)[C@@H](C)O)C(C)C` (Ac-QYPWAIVWGPTVSREDG-NH2), the Ki is 650 ± 9 nM.

The experiment is the same for the next values; noted with them: Table 9, Ala-, D-amino acids and N-methylation scans of PIANPWT; read-out: Ki (nM) mean ± SEM.
On to `CC[C@H](C)[C@H](NC(=O)[C@H](C)NC(=O)[C@H](Cc1c[nH]c2ccccc12)NC(=O)[C@@H]1CCCN1C(C)=O)C(=O)N[C@H](C(=O)N[C@@H](Cc1c[nH]c2ccccc12)C(=O)NCC(=O)N1CCC[C@H]1C(=O)N[C@H](C(=O)N[C@H](C(=O)N[C@@H](CO)C(=O)N[C@@H](CCCNC(=N)N)C(=O)N[C@@H](CCC(=O)O)C(=O)N(C)[C@@H](CC(=O)O)C(N)=O)C(C)C)[C@@H](C)O)C(C)C` (Ac-PWAIVWGPTVSRE[NMeD]-NH2), for which the inhibition constant Ki is 434 ± 10 nM. In the case of `CC[C@H](C)[C@H](NC(=O)[C@H](C)NC(=O)[C@H](Cc1c[nH]c2ccccc12)NC(=O)[C@@H]1CCCN1C(C)=O)C(=O)N[C@H](C(=O)N[C@@H](Cc1c[nH]c2ccccc12)C(=O)NCC(=O)N1CCC[C@H]1C(=O)N[C@H](C(=O)N[C@H](C(=O)N[C@@H](CO)C(=O)N[C@@H](CCCNC(=N)N)C(=O)N(C)[C@@H](CCC(=O)O)C(=O)N[C@@H](CC(=O)O)C(N)=O)C(C)C)[C@@H](C)O)C(C)C` (Ac-PWAIVWGPTVSR[NMeE]D-NH2), the Ki is 523 ± 13 nM. With `CC[C@H](C)[C@H](NC(=O)[C@H](C)NC(=O)[C@H](Cc1c[nH]c2ccccc12)NC(=O)[C@@H]1CCCN1C(C)=O)C(=O)N[C@H](C(=O)N[C@@H](Cc1c[nH]c2ccccc12)C(=O)NCC(=O)N1CCC[C@H]1C(=O)N[C@H](C(=O)N[C@H](C(=O)N[C@@H](CO)C(=O)N(C)[C@@H](CCCNC(=N)N)C(=O)N[C@@H](CCC(=O)O)C(=O)N[C@@H](CC(=O)O)C(N)=O)C(C)C)[C@@H](C)O)C(C)C` (Ac-PWAIVWGPTVS[NMeR]ED-NH2), the Ki was 502 ± 15 nM. The same measure, in the same setting: the value for `CC[C@H](C)[C@H](NC(=O)[C@H](C)NC(=O)[C@H](Cc1c[nH]c2ccccc12)NC(=O)[C@@H]1CCCN1C(C)=O)C(=O)N[C@H](C(=O)N[C@@H](Cc1c[nH]c2ccccc12)C(=O)NCC(=O)N1CCC[C@H]1C(=O)N[C@H](C(=O)N[C@H](C(=O)N(C)[C@@H](CO)C(=O)N[C@@H](CCCNC(=N)N)C(=O)N[C@@H](CCC(=O)O)C(=O)N[C@@H](CC(=O)O)C(N)=O)C(C)C)[C@@H](C)O)C(C)C` (Ac-PWAIVWGPTV[NMeS]RED-NH2) was 1045 ± 1 nM; that for `CC[C@H](C)[C@H](NC(=O)[C@H](C)NC(=O)[C@H](Cc1c[nH]c2ccccc12)NC(=O)[C@@H]1CCCN1C(C)=O)C(=O)N[C@H](C(=O)N[C@@H](Cc1c[nH]c2ccccc12)C(=O)NCC(=O)N1CCC[C@H]1C(=O)N[C@H](C(=O)N(C)[C@H](C(=O)N[C@@H](CO)C(=O)N[C@@H](CCCNC(=N)N)C(=O)N[C@@H](CCC(=O)O)C(=O)N[C@@H](CC(=O)O)C(N)=O)C(C)C)[C@@H](C)O)C(C)C` (Ac-PWAIVWGPT[NMeV]SRED-NH2) was 1780 ± 87 nM; that for `CC[C@H](C)[C@H](NC(=O)[C@H](C)NC(=O)[C@H](Cc1c[nH]c2ccccc12)NC(=O)[C@@H]1CCCN1C(C)=O)C(=O)N[C@H](C(=O)N[C@@H](Cc1c[nH]c2ccccc12)C(=O)NCC(=O)N1CCC[C@H]1C(=O)N(C)[C@H](C(=O)N[C@H](C(=O)N[C@@H](CO)C(=O)N[C@@H](CCCNC(=N)N)C(=O)N[C@@H](CCC(=O)O)C(=O)N[C@@H](CC(=O)O)C(N)=O)C(C)C)[C@@H](C)O)C(C)C` (Ac-PWAIVWGP[NMeT]VSRED-NH2) was 1260 ± 27 nM.

Still in this experiment, the particulars now being: Table 14, CPPs tagged peptides; read-out: Ki (nM) mean ± SEM.
For `CC[C@H](C)[C@H](NC(=O)[C@H](Cc1c[nH]c2ccccc12)NC(=O)[C@H](CC(=O)O)NC(=O)[C@H](CC(=O)O)NC(=O)[C@H](CC(=O)O)NC(=O)[C@H](CCC(=O)O)NC(=O)[C@H](CCCNC(=N)N)NC(=O)[C@H](CCCNC(=N)N)NC(=O)[C@H](CCCNC(=N)N)NC(=O)[C@H](CCCNC(=N)N)NC(=O)[C@H](CCCNC(=N)N)NC(C)=O)C(=O)N[C@@H](CC(=O)O)C(=O)N[C@@H](Cc1c[nH]c2ccccc12)C(=O)NCC(=O)N1CCC[C@H]1C(=O)N[C@H](C(=O)N[C@@H](CO)C(=O)N[C@@H](CC(=O)O)C(=O)N[C@@H](CC(=O)O)C(=O)N[C@@H](CC(=O)O)C(N)=O)[C@@H](C)O` (Ac-RRRRREDDDWIDWGPTSDDD-NH2), the Ki is 32 ± 1 nM.

With `CC[C@H](C)[C@H](NC(=O)[C@H](Cc1c[nH]c2ccccc12)NC(=O)[C@H](CC(=O)O)NC(=O)[C@H](CC(=O)O)NC(=O)[C@H](CC(=O)O)NC(=O)[C@H](CCC(=O)O)NC(=O)[C@H](CCCNC(=N)N)NC(=O)[C@H](CCCNC(=N)N)NC(=O)[C@H](CCCNC(=N)N)NC(=O)[C@H](CCCNC(=N)N)NC(=O)[C@H](CCCNC(=N)N)NC(C)=O)C(=O)N[C@@H](CC(=O)O)C(=O)N[C@@H](Cc1c[nH]c2ccccc12)C(=O)N[C@@H](Cc1ccc(O)cc1)C(=O)N[C@@H](CC(=O)O)C(=O)N[C@@H](CO)C(=O)N[C@@H](CC(=O)O)C(=O)N[C@@H](CC(=O)O)C(=O)N[C@@H](CC(=O)O)C(N)=O` (Ac-RRRRREDDDWIDWYDSDDD-NH2), the inhibition constant (Ki) is 39.5 ± 2 nM. On to `CC[C@H](C)[C@H](NC(=O)[C@H](Cc1c[nH]c2ccccc12)NC(=O)[C@H](CC(=O)O)NC(=O)[C@H](CC(=O)O)NC(=O)[C@H](CC(=O)O)NC(=O)[C@H](CCC(=O)O)NC(=O)[C@H](CCCNC(=N)N)NC(=O)[C@H](CCCNC(=N)N)NC(=O)[C@H](CCCNC(=N)N)NC(=O)[C@H](CCCNC(=N)N)NC(=O)[C@H](CCCNC(=N)N)NC(=O)[C@H](CCCNC(=N)N)NC(C)=O)C(=O)N[C@@H](CC(=O)O)C(=O)N[C@@H](Cc1c[nH]c2ccccc12)C(=O)NCC(=O)N1CCC[C@H]1C(=O)N[C@H](C(=O)N[C@@H](CO)C(=O)N[C@@H](CC(=O)O)C(=O)N[C@@H](CC(=O)O)C(=O)N[C@@H](CC(=O)O)C(N)=O)[C@@H](C)O` (Ac-RRRRRREDDDWIDWGPTSDDD-NH2), for which the Ki was 43.4 ± 1 nM.

On to `CC[C@H](C)[C@H](NC(=O)[C@H](Cc1c[nH]c2ccccc12)NC(=O)[C@H](CC(=O)O)NC(=O)[C@H](CC(=O)O)NC(=O)[C@H](CC(=O)O)NC(=O)[C@H](CCC(=O)O)NC(=O)[C@H](CCCNC(=N)N)NC(=O)[C@H](CCCNC(=N)N)NC(=O)[C@H](CCCNC(=N)N)NC(=O)[C@H](CCCNC(=N)N)NC(=O)[C@H](CCCNC(=N)N)NC(=O)[C@H](CCCNC(=N)N)NC(C)=O)C(=O)N[C@@H](CC(=O)O)C(=O)N[C@@H](Cc1c[nH]c2ccccc12)C(=O)N[C@@H](Cc1ccc(O)cc1)C(=O)N[C@@H](CC(=O)O)C(=O)N[C@@H](CO)C(=O)N[C@@H](CC(=O)O)C(=O)N[C@@H](CC(=O)O)C(=O)N[C@@H](CC(=O)O)C(N)=O` (Ac-RRRRRREDDDWIDWYDSDDD-NH2), for which the inhibitory constant (Ki) was 70.9 ± 1 nM. Consider `CC[C@H](C)[C@H](NC(=O)[C@H](Cc1c[nH]c2ccccc12)NC(=O)[C@H](CC(=O)O)NC(=O)[C@H](CC(=O)O)NC(=O)[C@H](CC(=O)O)NC(=O)[C@H](CCC(=O)O)NC(=O)[C@H](CCCNC(=N)N)NC(=O)[C@H](CCCNC(=N)N)NC(=O)[C@H](CCCNC(=N)N)NC(=O)[C@H](CCCNC(=N)N)NC(=O)[C@H](CCCNC(=N)N)NC(=O)[C@H](CCCNC(=N)N)NC(=O)[C@H](CCCNC(=N)N)NC(C)=O)C(=O)N[C@@H](CC(=O)O)C(=O)N[C@@H](Cc1c[nH]c2ccccc12)C(=O)NCC(=O)N1CCC[C@H]1C(=O)N[C@H](C(=O)N[C@@H](CO)C(=O)N[C@@H](CC(=O)O)C(=O)N[C@@H](CC(=O)O)C(=O)N[C@@H](CC(=O)O)C(N)=O)[C@@H](C)O` (Ac-RRRRRRREDDDWIDWGPTSDDD-NH2), for which the inhibition constant Ki was 65 ± 2 nM.
